This note sets out measurements from patent US7060699B2, “Aryl and heteroaryl diazabicycloalkanes, their preparation and use” (priority 2000, dated 2006).

For orientation: IC50 means the concentration needed to halve the response being measured.

The target in assay [1] is nAChR formed by the α7 subunit isoform (Rattus norvegicus, UniProt Q05941). Nature of the assay: biochemical. Format: binding.
The target in assay [2] is nAChR comprised of α4 and β2 subunits (Rattus norvegicus, UniProt P09483+P12390). The experiment in a line: In vitro inhibition of 3H-cytisine binding.
In the next assay the target is T1, serotonin transporter (Rattus norvegicus, UniProt P31652).
T1 construct: Cerebral cortices from male Wistar rats (150–200 g) are homogenized; from tissue; host or cells: rat cerebral cortex synaptosomes (P2 pellet)
The experiment in a line: In vitro inhibition of 3H-5-hydroxytryptamine (3H-5-HT, serotonin) uptake in cortical synaptosomes. Format: biochemical. The method, then: In Vitro Inhibition of ^3H-5-hydroxytryptamine (^3H-5-HT, Serotonin) Uptake in Cortical Synaptosomes
Serotonin transporters/uptake sites on nerve terminals presumably function to terminate neuronal signaling by removing serotonin from the synaptic cleft. The activity of the serotonin transporter integral protein can be measured in vitro by synaptosomal uptake of ^3H-5-hydroxytryptamine.
Preparations are performed at 0–4° C. unless otherwise indicated. Cerebral cortices from male Wistar rats (150–200 g) are homogenized for 5–10 sec in 100 volumes of ice-cold 0.32M sucrose containing 1 mM pargyline using a motor driven teflon pestle in a glass homogenizing vessel. Monoamine oxidase activity will be inhibited in the presence of pargyline. The homogenate is centrifuged at 1000×g for 10 min. The resulting supernatant is then centrifuged at 27,000×g for 50 min and the supernatant is discarded.
Aliquots of 4.0 ml tissue suspension are added to 100 µl of test solution and 100 μl of ^3H-5-HT (1 nM, final concentration), mixed and incubated for 30 min at 37° C. Non-specific uptake is determined using citalopram (1 μM, final concentration). After incubation the samples are poured directly onto Whatman GF/C glass fibre filters under suction. The filters are then washed three times with 5 ml of ice-cold 0.9% (w/v) NaCl solution. The amount of radioactivity on the filters is determined by conventional liquid scintillation counting. Specific uptake is calculated as the difference between total uptake and non-specific uptake.
where C0 is specific binding in control assays and Cx is the specific binding in the test assay (the calculations assume normal mass-action kinetics).

[3] abbreviates: cerebral cortex homogenate from male Wistar rats, 3H-cytisine 1 nM, 90 min at 2° C., read-out: 3H-cytisine binding IC50.

Where two headings read alike, the source gives them in different places.

Chain of nAChR formed by the α7 subunit isoform (Q05941 23-502): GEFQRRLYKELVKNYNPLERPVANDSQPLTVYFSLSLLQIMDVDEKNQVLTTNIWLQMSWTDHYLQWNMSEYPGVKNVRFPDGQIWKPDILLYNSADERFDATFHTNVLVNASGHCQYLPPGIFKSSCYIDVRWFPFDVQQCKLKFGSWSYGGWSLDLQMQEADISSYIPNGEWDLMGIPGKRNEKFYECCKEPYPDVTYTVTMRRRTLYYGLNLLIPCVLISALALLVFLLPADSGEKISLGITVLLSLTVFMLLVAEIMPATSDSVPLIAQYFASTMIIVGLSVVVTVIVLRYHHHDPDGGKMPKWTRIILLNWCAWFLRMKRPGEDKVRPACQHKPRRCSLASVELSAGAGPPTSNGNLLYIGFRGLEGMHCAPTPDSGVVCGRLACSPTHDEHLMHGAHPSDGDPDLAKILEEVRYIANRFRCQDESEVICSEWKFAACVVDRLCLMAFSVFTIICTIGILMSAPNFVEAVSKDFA
T1 sequence (P31652 whole entry): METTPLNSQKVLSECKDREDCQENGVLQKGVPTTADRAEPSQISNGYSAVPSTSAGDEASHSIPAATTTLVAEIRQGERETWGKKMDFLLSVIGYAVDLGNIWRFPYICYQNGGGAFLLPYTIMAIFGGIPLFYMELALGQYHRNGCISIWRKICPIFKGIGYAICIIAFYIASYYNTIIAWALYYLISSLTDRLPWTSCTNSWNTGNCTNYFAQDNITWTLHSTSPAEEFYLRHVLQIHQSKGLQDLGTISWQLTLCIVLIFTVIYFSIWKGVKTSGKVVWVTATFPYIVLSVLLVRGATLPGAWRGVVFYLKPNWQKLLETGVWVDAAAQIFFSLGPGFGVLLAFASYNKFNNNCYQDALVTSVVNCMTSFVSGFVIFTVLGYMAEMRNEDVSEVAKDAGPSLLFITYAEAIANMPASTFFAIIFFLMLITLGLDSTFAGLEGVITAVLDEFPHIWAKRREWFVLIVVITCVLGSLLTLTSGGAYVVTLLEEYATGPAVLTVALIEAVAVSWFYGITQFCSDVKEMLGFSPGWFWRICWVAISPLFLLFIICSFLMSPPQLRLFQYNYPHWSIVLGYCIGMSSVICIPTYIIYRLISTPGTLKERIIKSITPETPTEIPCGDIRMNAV
Chain of nAChR comprised of α4 and β2 subunits (P09483 31-630): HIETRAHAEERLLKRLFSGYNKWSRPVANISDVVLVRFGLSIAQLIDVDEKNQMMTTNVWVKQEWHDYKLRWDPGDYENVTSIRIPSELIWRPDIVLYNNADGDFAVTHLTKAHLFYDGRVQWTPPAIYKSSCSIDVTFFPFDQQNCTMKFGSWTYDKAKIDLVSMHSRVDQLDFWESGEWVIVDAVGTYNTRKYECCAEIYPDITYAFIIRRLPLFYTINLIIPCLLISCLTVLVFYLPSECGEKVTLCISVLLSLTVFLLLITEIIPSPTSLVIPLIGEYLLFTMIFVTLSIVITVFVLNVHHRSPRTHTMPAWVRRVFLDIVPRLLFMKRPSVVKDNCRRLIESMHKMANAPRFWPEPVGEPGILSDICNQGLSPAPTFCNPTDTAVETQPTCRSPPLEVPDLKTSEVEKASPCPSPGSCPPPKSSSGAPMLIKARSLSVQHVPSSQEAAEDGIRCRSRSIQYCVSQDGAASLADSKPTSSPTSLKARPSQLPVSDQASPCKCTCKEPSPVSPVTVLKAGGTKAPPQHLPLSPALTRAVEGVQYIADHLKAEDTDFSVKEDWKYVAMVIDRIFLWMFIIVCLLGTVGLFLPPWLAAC
Chain of nAChR comprised of α4 and β2 subunits (P12390 25-500): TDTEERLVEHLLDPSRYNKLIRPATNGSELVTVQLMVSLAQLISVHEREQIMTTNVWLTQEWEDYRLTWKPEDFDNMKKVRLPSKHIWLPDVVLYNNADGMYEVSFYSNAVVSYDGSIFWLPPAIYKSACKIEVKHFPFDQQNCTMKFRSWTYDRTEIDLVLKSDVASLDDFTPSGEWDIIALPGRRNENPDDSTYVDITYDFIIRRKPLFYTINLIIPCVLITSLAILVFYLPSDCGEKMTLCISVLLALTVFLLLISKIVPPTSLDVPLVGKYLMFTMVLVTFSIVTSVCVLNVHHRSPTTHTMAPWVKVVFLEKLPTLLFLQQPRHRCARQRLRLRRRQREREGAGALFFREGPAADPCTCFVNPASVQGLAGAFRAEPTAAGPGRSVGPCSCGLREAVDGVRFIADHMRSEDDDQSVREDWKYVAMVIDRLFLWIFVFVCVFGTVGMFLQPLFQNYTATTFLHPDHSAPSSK

In the case of `CN1C2CCC1CN(c1ccc(-c3ccccc3)nn1)CC2` (racemic) [Compound C2, (±) 3-(6-Phenyl-3-pyridazinyl)-9-methyl-3,9-diazabicyclo-[4.2.1]-nonane], the IC50 is 410 nM in assay [1] and over 10000 nM in assay [2] (setting [3]).

On to `CN1C2CCC1CN(c1cncc(OCCOc3cncc(N4CCC5CCC(C4)N5C)c3)c1)CC2` (racemic) [Compound B7, (±) O,O′-bis-[5-(9-Methyl-3,9-diazabicyclo-[4.2.1]-nonan-3-yl)-3-pyridyl]-ethyleneglycol], for which the figures for the IC50 in assay [1] and in assay [2] were over 10000 nM and 13 nM, respectively.

In the case of `CN1C2CCC1CN(c1ccc3ccccc3c1)CC2` (racemic) [Compound 1, (±) 3-(2-Naphthalyl)-9-methyl-3,9-diazabicyclo-[4.2.1]-nonane], the midpoint of inhibition on serotonin transporter, the IC50, lay at 40 nM.

`CN1C2CCC1CN(c1ccc(Cl)c(Cl)c1)CC2` (racemic) [Compound A1, (±) 3-(3,4-Dichlorophenyl)-9-methyl-3,9-diazabicyclo-[4.2.1]-nonane] came in with a half-inhibitory concentration (IC50) on serotonin transporter of 32 nM.

With `CN1C2CCC1CN(c1ccc3ccccc3n1)CC2` (racemic) [Compound 2, (±) 3-(2-Quinolinyl)-9-methyl-3,9-diazabicyclo-[4.2.1]-nonane], the half-inhibitory concentration (IC50) at serotonin transporter was 13 nM.

As for `CN1CCC2CCC(C1)N2c1ccc(-c2ccccc2)nn1` (racemic) [Compound F10, (±) 3-Methyl-9-(6-phenyl-3-pyridazinyl)-3,9-diazabicyclo-[4.2.1]-nonane], the IC50 in assay [1] came to 800 nM; in assay [2] (setting [3]), 27000 nM.

For the compound `Cc1ccccc1-c1ccc(N2CCC3CCC(C2)N3C)cn1` (racemic) [Compound F1, (±) 3-[6-(2-Toluyl)-3-pyridyl]-9-methyl-3,9-diazabicyclo-[4.2.1]-nonane], the IC50 was 5500 nM in assay [1] and 99 nM in assay [2].

`CN1C2CCC1CN(c1ccc3cc([N+](=O)[O-])ccc3n1)CC2` (racemic) [Compound C3, (±) 3-(6-Nitro-2-quinolinyl)-9-methyl-3,9-diazabicyclo-[4.2.1]-nonane] returned a 50% inhibitory concentration (IC50) at serotonin transporter of 3.7 nM.

As to `c1ccc2ncc(N3CCC4CCC(C3)N4)cc2c1` (racemic) [Compound B5, (±) 3-(3-Quinolinyl)-9-H-3,9-diazabicyclo-[4.2.1]-nonane], the IC50 against serotonin transporter was determined as 49 nM.

Regarding `CN1C2CCC1CN(c1ccc(-c3ccsc3)nc1)CC2` (racemic) [Compound F5, (±) 3-[6-(3-Thienyl)-3-pyridyl]-9-methyl-3,9-diazabicyclo-[4.2.1]-nonane], the IC50 worked out at 280 nM in assay [1] and 1500 nM in assay [2] (setting [3]).
